Reference: PMC11191402, “High-Affinity NIR-Fluorescent Inhibitors for Tumor Imaging via Carbonic Anhydrase IX” (Bioconjugate Chemistry, 2024)

What was measured:
[1] = biological target: T1, human recombinant CAVA (Homo sapiens, UniProt P35218); set-up: method as in PMID 36271018; settings: FTSA, 37 °C, pH 7.0; cited from earlier work
T1 construct: Most isozymes were truncated, and only the catalytic domains of the proteins were produced; made in house; host or cells: bacterial expression system
T1 sequence (P35218 39-296 limits assumed): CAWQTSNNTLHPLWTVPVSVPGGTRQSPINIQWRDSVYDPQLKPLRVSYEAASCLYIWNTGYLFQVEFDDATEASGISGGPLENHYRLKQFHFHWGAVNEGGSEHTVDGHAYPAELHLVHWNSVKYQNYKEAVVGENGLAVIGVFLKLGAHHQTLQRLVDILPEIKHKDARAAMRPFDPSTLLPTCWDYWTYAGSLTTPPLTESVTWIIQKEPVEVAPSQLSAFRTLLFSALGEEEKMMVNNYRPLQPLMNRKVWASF

[2] = biological target: T2, human recombinant CAVI (Homo sapiens, UniProt P23280); set-up: method as in PMID 36271018; settings: FTSA, 37 °C, pH 7.0; cited from earlier work
T2 construct: Most isozymes were truncated, and only the catalytic domains of the proteins were produced; made in house; host or cells: bacterial expression system
T2 sequence (P23280 21-278 limits assumed): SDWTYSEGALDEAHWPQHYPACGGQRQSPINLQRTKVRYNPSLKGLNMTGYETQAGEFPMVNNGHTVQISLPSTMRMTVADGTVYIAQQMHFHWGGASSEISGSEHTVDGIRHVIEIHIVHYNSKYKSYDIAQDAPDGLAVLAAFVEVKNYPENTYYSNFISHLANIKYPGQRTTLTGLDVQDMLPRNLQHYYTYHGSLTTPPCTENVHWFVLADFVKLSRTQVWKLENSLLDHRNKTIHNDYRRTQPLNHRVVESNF

[3] = biological target: T3, human recombinant CAII (Homo sapiens, UniProt P00918); set-up: method as in PMID 36271018; settings: FTSA, 37 °C, pH 7.0; cited from earlier work
T3 construct: made in house; host or cells: bacterial expression system

[4] = biological target: T4, human recombinant CAIV (Homo sapiens, UniProt P22748); set-up: method as in PMID 36271018; settings: FTSA, 37 °C, pH 7.0; cited from earlier work
T4 construct: Most isozymes were truncated, and only the catalytic domains of the proteins were produced; made in house; host or cells: bacterial expression system
T4 sequence (P22748 21-285 limits assumed): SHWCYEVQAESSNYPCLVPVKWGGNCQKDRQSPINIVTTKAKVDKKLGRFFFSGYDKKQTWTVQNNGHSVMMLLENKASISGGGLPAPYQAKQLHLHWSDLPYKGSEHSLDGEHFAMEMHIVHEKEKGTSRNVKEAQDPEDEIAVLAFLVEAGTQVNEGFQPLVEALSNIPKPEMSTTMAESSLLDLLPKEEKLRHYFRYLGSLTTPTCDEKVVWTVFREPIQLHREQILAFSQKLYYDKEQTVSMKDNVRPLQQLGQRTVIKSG

[5] = biological target: T5, human recombinant CAXIV (Homo sapiens, UniProt Q9ULX7); set-up: method as in PMID 36271018; settings: FTSA, 37 °C, pH 7.0; cited from earlier work
T5 construct: Most isozymes were truncated, and only the catalytic domains of the proteins were produced; made in house; host or cells: bacterial expression system
T5 sequence (Q9ULX7 20-278 limits assumed): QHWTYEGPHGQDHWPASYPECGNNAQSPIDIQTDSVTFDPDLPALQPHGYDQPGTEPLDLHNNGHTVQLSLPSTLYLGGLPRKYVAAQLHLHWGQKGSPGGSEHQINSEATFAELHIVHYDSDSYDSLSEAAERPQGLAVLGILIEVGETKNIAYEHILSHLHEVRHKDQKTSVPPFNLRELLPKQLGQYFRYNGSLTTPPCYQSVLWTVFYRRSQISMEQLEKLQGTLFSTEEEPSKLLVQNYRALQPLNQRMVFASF

[6] = biological target: T6, human recombinant CAVB (Homo sapiens, UniProt Q9Y2D0); set-up: method as in PMID 36271018; settings: FTSA, 37 °C, pH 7.0; cited from earlier work
T6 construct: Most isozymes were truncated, and only the catalytic domains of the proteins were produced; made in house; host or cells: bacterial expression system
T6 sequence (Q9Y2D0 37-296 limits assumed): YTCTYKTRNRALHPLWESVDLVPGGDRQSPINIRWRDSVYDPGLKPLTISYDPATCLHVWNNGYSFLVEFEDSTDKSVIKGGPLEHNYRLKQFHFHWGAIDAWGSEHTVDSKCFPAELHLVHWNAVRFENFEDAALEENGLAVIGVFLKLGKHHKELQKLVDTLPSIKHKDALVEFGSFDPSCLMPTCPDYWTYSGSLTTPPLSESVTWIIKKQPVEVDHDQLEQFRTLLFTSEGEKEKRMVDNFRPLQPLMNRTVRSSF

[7] = biological target: T7, human recombinant CAXII (Homo sapiens, UniProt O43570); set-up: method as in PMID 36271018; settings: FTSA, 37 °C, pH 7.0; cited from earlier work
T7 construct: Most isozymes were truncated, and only the catalytic domains of the proteins were produced; made in house; host or cells: bacterial expression system
T7 sequence (O43570 30-289 limits assumed): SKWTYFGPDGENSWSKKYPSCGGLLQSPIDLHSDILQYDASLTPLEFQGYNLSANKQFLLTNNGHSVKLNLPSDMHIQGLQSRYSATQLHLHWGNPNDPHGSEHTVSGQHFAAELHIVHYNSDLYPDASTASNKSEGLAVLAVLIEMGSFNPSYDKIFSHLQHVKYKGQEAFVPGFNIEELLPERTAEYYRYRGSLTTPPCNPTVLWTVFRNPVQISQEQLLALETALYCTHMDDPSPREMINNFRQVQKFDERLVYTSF

[8] = biological target: T8, human recombinant CAVII (Homo sapiens, UniProt P43166); set-up: method as in PMID 36271018; settings: FTSA, 37 °C, pH 7.0; cited from earlier work
T8 construct: made in house; host or cells: bacterial expression system
T8 sequence (P43166 whole entry): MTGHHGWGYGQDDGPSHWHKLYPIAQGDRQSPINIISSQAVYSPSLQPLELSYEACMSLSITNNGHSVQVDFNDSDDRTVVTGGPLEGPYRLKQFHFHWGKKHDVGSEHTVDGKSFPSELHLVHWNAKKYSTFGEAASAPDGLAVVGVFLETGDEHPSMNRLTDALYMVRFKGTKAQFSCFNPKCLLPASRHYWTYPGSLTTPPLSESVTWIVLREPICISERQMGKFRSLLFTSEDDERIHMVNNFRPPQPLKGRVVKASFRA

[9] = biological target: T9, human recombinant CAIII (Homo sapiens, UniProt P07451); set-up: method as in PMID 36271018; settings: FTSA, 37 °C, pH 7.0; cited from earlier work
T9 construct: made in house; host or cells: bacterial expression system
T9 sequence (P07451 whole entry): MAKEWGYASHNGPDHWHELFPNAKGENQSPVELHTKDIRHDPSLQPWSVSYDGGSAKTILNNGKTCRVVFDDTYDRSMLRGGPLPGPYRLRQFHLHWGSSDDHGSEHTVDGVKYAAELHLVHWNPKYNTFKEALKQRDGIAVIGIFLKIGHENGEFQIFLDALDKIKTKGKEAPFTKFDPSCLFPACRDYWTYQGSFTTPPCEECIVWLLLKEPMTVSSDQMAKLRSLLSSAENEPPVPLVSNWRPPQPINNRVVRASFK

[10] = biological target: T10, CAIX expressed on cell membranes of HeLa cells (Homo sapiens, UniProt Q16790); assay: Fluorescence microscopy staining of live HeLa cells; assay type: cell-based; settings: 250 nM compound; pCMV-CAIX-transfected cells, normoxia
T10 construct: an open reading frame for the full-length CAIX protein (1–459 amino acids) without a tag; expressed in transfected cells; host or cells: HeLa cells transfected with pCMV-CAIX (TurboFect), normoxia
Description: Live HeLa cell culture was used for visualization of the NIR-fluorescent compound binding to CAIX expressed on cell membranes (Figures 3 and S2). […] Hypoxic conditions were insufficient for CAIX-specific fluorescence detection (Figure S3). Transfected cells expressed 10-fold more CAIX protein than cells grown under hypoxia, as determined by dosing the fluorescein-containing compound GZ19-32. […] We should point out that microphotographs in Figures 3 and S2 were taken at different exposure times to ensure good visualization quality. Nevertheless, all four compounds were suitable for direct visualization of CAIX expressed on transfected cell membranes.
For visualization of CAIX in live cells, HeLa cells were seeded in 12-well plates, and the next day they were transfected with the pCMV-CAIX plasmid to induce CAIX expression under normoxia. The TurboFect Transfection Reagent (Thermo Fisher) was used for this purpose according to manufacturer’s directions. Cells were stained and visualized next day after transfection. Nontransfected cells, grown under normoxia, were used as a control. For the induction of CAIX expression without transfection, cells were cultured under hypoxia for 3 days.
For cell imaging, live cells were incubated with the recombinant monoclonal antibody to CAIX (M75) (Absolute Antibody, #Ab00414–1.1) in the CO2 incubator for 30 min. The antibody stock solution (1 mg/mL) was used at a dilution of 1:150 in FluoroBright (FB)(Thermo Fisher) medium. After washing (3 × 5 min with DMEM in RT, gentle rock), cells were incubated with secondary Alexa Fluor 488 goat antimouse antibodies (2 mg/mL, Thermo Fisher), at a dilution of 1:200 in FB, in a CO2 incubator for 30 min. After washing (3 × 5 min with DMEM in RT and 2 × 1 min with PBS), cells were incubated with NIR-fluorescent inhibitors ([…] in PBS) in a CO2 incubator for 5–8 min. After washing (2 min + 2 × 1 min with PBS), PBS was replaced by FB, and 15 μL of NucBlue Live Cell Stain ReadyProbes reagent (Thermo Fisher) was added per well. After 5 min, cells were observed and photographed using an automated fluorescence microscope EVOS FL Auto (Thermo Fisher).

Row | Structure (SMILES) | Kd [1] [nM] | Kd [2] [nM] | melting point [°C] | Kd [3] [nM] | Kd [4] [nM] | Kd [5] [nM] | Kd [6] [nM] | Kd [7] [nM] | Kd [8] [nM] | Kd [9] [nM] | staining of HeLa cells (NIR fluorescence microscopy) [10]
1 | NS(=O)(=O)c1c(F)c(F)c(S(=O)(=O)CCC(=O)O)c(NC2CCCCCCC2)c1F [GZ18-23, 3-((2-(Cyclooctylamino)-3,5,6-trifluoro-4-sulfamoylphenyl)sulfonyl)propanoic Acid] | 10000 | 100 | 143 to 144 | 200 | 100 | 3 | 200 | 1.4 | 40 | ≥ 200000 | 
2 | CC1(C)C(/C=C/C2=C(Oc3ccc(CCC(=O)O)cc3)C(=C/C=C3\N(CCCCS(=O)(=O)[O-])c4ccccc4C3(C)C)/CCC2)=[N+](CCCCS(=O)(=O)[O-])c2ccccc21.[Na+] [GZ21-20, Sodium 4-((Z)-2-((E)-2-(2-(4-(2-Carboxyethyl)phenoxy)-3-((E)-2-(3,3-dimethyl-1-(4-sulfonatobutyl)-3H-indol-1-ium-2-yl)vinyl)cyclohex-2-en-1-ylidene)ethylidene)-3,3-dimethylindolin-1-yl)butane-1-sulfonate] |  |  | 225 to 228 |  |  |  |  |  |  |  | no visual response on transfected cells
